Assay results as given in patent publication US4208520A, “7-(Substituted)-7H-pyrrolo[3,2-f]quinazoline-1,3-diamines” (American Home Products Corporation, priority 1978, dated 1980).
In brackets after ≈: the same amount, converted by molar mass. Where two headings read alike, the source gives them in different places.

Columns and labels:
E. coli 9637 = test: In vitro antibacterial activity (minimal inhibitory concentration, agar dilution); format: cell-based
Experimental: (§1) The compounds have shown activity in vitro against one or more of the following strains of bacteria: S. aureus Smith, S. aureus 53-180, N. catarrhalis 8193, E. coli 9637, S. paratyphi 11737, K. pneumoniae 10031, or P. vulgaris 6896.
(§2) A stock solution or suspension of the test compound at a concentration of 2500 μg/ml. is prepared utilizing a suitable solvent or medium such as aqueous sodium hydroxide, aqueous lactic acid, methyl cellosolve, dimethylsulfoxide, dimethylacetamide, ethylene glycol, dimethylformamide, formamide, propylene glycol, acetone or methanol. Two-fold dilutions are made by adding appropriate amounts of sterile water to the solution or suspension of the test substance. One ml. quantities of each dilution are incorporated into Wellcotest Sensitivity Test Agar fortified with 5% hemolyzed horse blood (9 ml. vol.) in sterile Petri dishes to give plates containing varying concentrations of the test compound. The hardened surfaces of each plate are incubated with the test organism, and the plates are incubated for 18 hours at 35° C.

K. pneumoniae 10031 = test: as above; format: cell-based
Experimental: as §1, §2

P. vulgaris 6896 = test: as above; format: cell-based
Experimental: as §1, §2

S. aureus 53-180 = test: as above; format: cell-based
Experimental: as §1, §2

S. aureus Smith = test: as above; format: cell-based; settings: Staphylococcus aureus
Experimental: as §1, §2

S. paratyphi 11737 = test: as above; format: cell-based; settings: Salmonella enterica, Wellcotest Sensitivity Test Agar with 5% hemolyzed horse blood, 18 hours at 35° C.
Experimental: as §1, §2

N. catarrhalis 8193 = test: as above; format: cell-based; settings: Wellcotest Sensitivity Test Agar with 5% hemolyzed horse blood, 18 hours at 35° C.
Experimental: as §1, §2

Escherichia coli (E-2) = test: In vivo antibacterial synergism with sulfomethoxazole (mouse protection test); settings: E. coli (E-2), CD-1 mice; for ED50: Escherichia coli, po, single dose, alone, treated immediately after infecting, read-out: PD50
Experimental: (§3) The test agent is weighed, suspended in 0.5% aqueous carboxymethyl cellulose, hemogenized (glass tissue grinder) and diluted according to the design of the experiment. Mice (male, 18±1 g., CD-1 strain) are pre-weighed, pooled, infected at random intraperitoneally with a 0.5 ml. standardized suspension (LD95 ±5%) of the bacterial organism in 5% gastric mucin and treated at random with single doses of the test agents either at the time of infection or six hours after infecting. The treated groups consist of ten mice per dosage level. Deaths are recorded daily for 14 days and the PD50 (mice are treated at time of infection) and CD50 (mice are treated six hours after infecting) values are calculated by the method of Reed and Muench [Amer. J. Hyg., 27, (1938)].

Escherichia coli (E-3) = test: as above; settings: E. coli (E-3), CD-1 mice; for ED50: Escherichia coli, po, single dose, alone, treated immediately after infecting, read-out: PD50
Experimental: as §3

[1] = system: Staphylococcus aureus CHP; test: as above; settings: CD-1 mice; for ED50: po, single dose, alone, treated immediately after infecting, read-out: PD50
Experimental: as §3

bacterial infections = test: Potentiation of sulfa drug against bacterial infections in mice, oral; format: in vivo, mouse; settings: oral route of administration in mice
Experimental: The invention also provides compounds which will potentiate the antibacterial effects of sulfa drugs.
as §3

[2] = Klebsiella pneumoniae, K. pneumoniae 10031, Wellcotest Sensitivity Test Agar with 5% hemolyzed horse blood, 18 hours at 35° C., read-out: MIC
[3] = Staphylococcus aureus, 53180, 18 h
[4] = Escherichia coli, E. coli 9637, Wellcotest Sensitivity Test Agar with 5% hemolyzed horse blood, 18 hours at 35° C., read-out: MIC
[5] = Klebsiella pneumoniae, 10031, 18 h
[6] = Staphylococcus aureus, 53180, S. aureus 53-180, Wellcotest Sensitivity Test Agar with 5% hemolyzed horse blood, 18 hours at 35° C., read-out: MIC
[7] = S. aureus Smith, Wellcotest Sensitivity Test Agar with 5% hemolyzed horse blood, 18 hours at 35° C., read-out: MIC
[8] = p.o., Cpd. dose in combination with SM
[9] = Proteus vulgaris, P. vulgaris 6896, Wellcotest Sensitivity Test Agar with 5% hemolyzed horse blood, 18 hours at 35° C., read-out: MIC
[10] = p.o., SM dose in combination with Cpd.

Which results are given for `Nc1nc(N)c2c(ccc3c2ccn3Cc2ccc(O)cc2)n1` [Example 9, 7-[(4-Hydroxyphenyl)methyl]-7H-pyrrolo[3,2-f]quinazoline-1,3-diamine]?
MIC (E. coli 9637; Escherichia coli, 9637, 18 h): 0.976 µg/mL (≈ 3.2 µM); MIC (K. pneumoniae 10031; [2]): 0.244 µg/mL (≈ 0.799 µM); MIC (P. vulgaris 6896; Proteus vulgaris, 6896, 18 h): 250 µg/mL (≈ 819 µM); MIC (S. aureus 53-180; [3]): 0.488 µg/mL (≈ 1.6 µM); MIC (S. aureus Smith; 18 h): 0.488 µg/mL (≈ 1.6 µM); MIC (S. paratyphi 11737): 3.9 µg/mL (≈ 12.8 µM)

How did the MIC (E. coli 9637; [4]) turn out when `Nc1nc(N)c2c(ccc3c2ccn3-c2ccncc2)n1` [Example 10, 7-(4-Pyridinyl)-7H-pyrrolo-[3,2-f]quinazoline-1,3-diamine] was run?
The MIC was 0.244 µg/mL (≈ 0.883 µM).

What about the MIC (K. pneumoniae 10031; [5]) of the same compound?
The MIC was 0.976 µg/mL (≈ 3.53 µM).

What about the MIC (N. catarrhalis 8193) of the same compound?
Its MIC is 0.0152 µg/mL (≈ 0.055 µM).

What about the MIC (P. vulgaris 6896; Proteus vulgaris, 6896, 18 h) of the same compound?
The MIC was 62.5 µg/mL (≈ 226 µM).

What about the MIC (S. aureus 53-180; [6]) of the same compound?
Its MIC is 0.224 µg/mL (≈ 0.811 µM).

And the MIC (S. aureus Smith; [7])?
Its MIC is 0.448 µg/mL (≈ 1.62 µM).

What about the MIC (S. paratyphi 11737) of the same compound?
Its MIC is 0.976 µg/mL (≈ 3.53 µM).

What about the ED50 (Escherichia coli (E-2)) of the same compound?
Its ED50 is greater than 400 mg/kg.

And the “PD50 of Cpd. in combination SM/Cpd.” value (Escherichia coli (E-2); [8])?
Its value is 1.20 mg. per kg.

And the ED50 (Escherichia coli (E-3))?
The ED50 was 313 mg/kg.

What about the “PD50 of Cpd. in combination SM/Cpd.” value (Escherichia coli (E-3); [8]) of the same compound?
Its value is 6.25 mg. per kg.

And the “PD50 of Cpd. in combination SM/Cpd.” value [1, 8]?
The value was 7.28 mg. per kg.

And the ED50 [1]?
The ED50 was greater than 400 mg/kg.

And the “synergistic effect with sulfamethoxazole against bacterial infections” value (bacterial infections)?
Its value is “gave a synergistic effect with sulfamethoxazole against bacterial infections”.

`NC(=O)c1ccc(-n2ccc3c4c(N)nc(N)nc4ccc32)cc1` [Example 13] was tested. Which MIC (K. pneumoniae 10031; [2]) did it give?
Its MIC is 0.976 µg/mL (≈ 3.07 µM).

What about the MIC (S. aureus 53-180; [3]) of the same compound?
The MIC was 7.81 µg/mL (≈ 24.5 µM).

And the MIC (S. aureus Smith; [7])?
The MIC was 1.95 µg/mL (≈ 6.13 µM).

How did the MIC (E. coli 9637; [4]) turn out when `CC(=O)c1cccc(Cn2ccc3c4c(N)nc(N)nc4ccc32)c1` [Example 3] was run?
The MIC was 0.244 µg/mL (≈ 0.736 µM).

What about the MIC (K. pneumoniae 10031; [2]) of the same compound?
Its MIC is 0.031 µg/mL (≈ 0.0935 µM).

And the MIC (P. vulgaris 6896; [9])?
The MIC was 3.9 µg/mL (≈ 11.8 µM).

And the MIC (S. aureus 53-180; [6])?
The MIC was 0.061 µg/mL (≈ 0.184 µM).

What about the MIC (S. aureus Smith; [7]) of the same compound?
Its MIC is 0.122 µg/mL (≈ 0.368 µM).

And the MIC (S. paratyphi 11737)?
Its MIC is 0.976 µg/mL (≈ 2.95 µM).

With `Nc1nc(N)c2c(ccc3c2ccn3-c2ccc(C(F)(F)F)cc2)n1` [Example 12] as the compound, how does the MIC (E. coli 9637; Escherichia coli, 9637, 18 h) read?
Its MIC is 250 µg/mL (≈ 728 µM).

And the MIC (K. pneumoniae 10031; [2])?
Its MIC is 3.9 µg/mL (≈ 11.4 µM).

And the MIC (S. aureus 53-180; [3])?
The MIC was 31.3 µg/mL (≈ 91.2 µM).

What about the MIC (S. aureus Smith; 18 h) of the same compound?
Its MIC is 31.3 µg/mL (≈ 91.2 µM).

What does the source list for `Cc1cc(NS(=O)(=O)c2ccc(N)cc2)no1` [SM, sulfomethoxazole, reference compound]?
ED50 (Escherichia coli (E-2)): 25 mg/kg; PD50 of SM in combination SM/Cpd. (Escherichia coli (E-2); [10]): 5.25 mg. per kg.; ED50 (Escherichia coli (E-3)): 28.1 mg/kg; PD50 of SM in combination SM/Cpd. (Escherichia coli (E-3); [10]): 12.5 mg. per kg.; PD50 of SM in combination SM/Cpd. [1, 10]: 50 mg. per kg.; ED50 [1]: 259 mg/kg

Which results are given for `Nc1nc(N)c2c(ccc3c2ccn3Cc2ccc(Cl)cc2Cl)n1` [Example 2, 7-[(2,4-Dichlorophenyl)methyl]-7H-pyrrolo[3,2-f]quinazoline-1,3-diamine]?
MIC (E. coli 9637; [4]): 3.9 µg/mL (≈ 10.9 µM); MIC (K. pneumoniae 10031; [5]): 0.488 µg/mL (≈ 1.36 µM); MIC (N. catarrhalis 8193): 0.0038 µg/mL (≈ 0.0106 µM); MIC (S. aureus 53-180; [3]): 0.488 µg/mL (≈ 1.36 µM); MIC (S. aureus Smith; 18 h): 0.976 µg/mL (≈ 2.72 µM); MIC (S. paratyphi 11737): 31.3 µg/mL (≈ 87.4 µM)

What does the source list for `COC(=O)c1cccc(Cn2ccc3c4c(N)nc(N)nc4ccc32)c1` [Example 4]?
MIC (E. coli 9637; [4]): 1.95 µg/mL (≈ 5.61 µM); MIC (K. pneumoniae 10031; [2]): 0.244 µg/mL (≈ 0.702 µM); MIC (P. vulgaris 6896; [9]): 125 µg/mL (≈ 360 µM); MIC (S. aureus 53-180; [6]): 0.122 µg/mL (≈ 0.351 µM); MIC (S. aureus Smith; 18 h): 0.976 µg/mL (≈ 2.81 µM); MIC (S. paratyphi 11737): 31.3 µg/mL (≈ 90.1 µM)

With `Cc1ccnc(-n2ccc3c4c(N)nc(N)nc4ccc32)c1` [Example 11] as the compound, how does the MIC (E. coli 9637; [4]) read?
The MIC was 3.9 µg/mL (≈ 13.4 µM).

And the MIC (K. pneumoniae 10031; [2])?
The MIC was 0.244 µg/mL (≈ 0.84 µM).

What about the MIC (N. catarrhalis 8193) of the same compound?
The MIC was 0.0152 µg/mL (≈ 0.0524 µM).

What about the MIC (P. vulgaris 6896; [9]) of the same compound?
The MIC was 15.6 µg/mL (≈ 53.7 µM).

And the MIC (S. aureus 53-180; [3])?
Its MIC is 0.976 µg/mL (≈ 3.36 µM).

And the MIC (S. aureus Smith; 18 h)?
Its MIC is 3.9 µg/mL (≈ 13.4 µM).

What about the MIC (S. paratyphi 11737) of the same compound?
The MIC was 7.81 µg/mL (≈ 26.9 µM).

`COC(=O)c1ccc(Cn2ccc3c4c(N)nc(N)nc4ccc32)cc1` [Example 8] was tested. Which MIC (E. coli 9637; Escherichia coli, 9637, 18 h) did it give?
The MIC was 62.5 µg/mL (≈ 180 µM).

And the MIC (K. pneumoniae 10031; [2])?
Its MIC is 15.6 µg/mL (≈ 44.9 µM).

And the MIC (P. vulgaris 6896; Proteus vulgaris, 6896, 18 h)?
Its MIC is 250 µg/mL (≈ 720 µM).

And the MIC (S. aureus 53-180; [3])?
Its MIC is 7.81 µg/mL (≈ 22.5 µM).

And the MIC (S. aureus Smith; 18 h)?
Its MIC is 31.3 µg/mL (≈ 90.1 µM).

And the MIC (S. paratyphi 11737)?
The MIC was 250 µg/mL (≈ 720 µM).

How did the MIC (K. pneumoniae 10031; [2]) turn out when `CCCC(C)OC(=O)c1ccc(Cn2ccc3c4c(N)nc(N)nc4ccc32)cc1` (stereo not drawn) [Example 7] was run?
Its MIC is 15.6 µg/mL (≈ 38.7 µM).

What about the MIC (N. catarrhalis 8193) of the same compound?
The MIC was 7.81 µg/mL (≈ 19.4 µM).

What about the MIC (S. aureus 53-180; [6]) of the same compound?
The MIC was 7.81 µg/mL (≈ 19.4 µM).

And the MIC (S. aureus Smith; [7])?
Its MIC is 15.6 µg/mL (≈ 38.7 µM).

Which results are given for `CC(C)OC(=O)c1ccc(Cn2ccc3c4c(N)nc(N)nc4ccc32)cc1` [Example 6]?
MIC (E. coli 9637; [4]): 15.6 µg/mL (≈ 41.6 µM); MIC (K. pneumoniae 10031; [5]): 0.488 µg/mL (≈ 1.3 µM); MIC (N. catarrhalis 8193): 0.122 µg/mL (≈ 0.325 µM); MIC (P. vulgaris 6896; [9]): 125 µg/mL (≈ 333 µM); MIC (S. aureus 53-180; [3]): 0.488 µg/mL (≈ 1.3 µM); MIC (S. aureus Smith; 18 h): 0.488 µg/mL (≈ 1.3 µM); MIC (S. paratyphi 11737): 62.5 µg/mL (≈ 166 µM)
